Assays:
Format in all cases: in vivo, human
[1] = Phase I clinical study, clinical pharmacology: food effect study (fasting vs postprandial pharmacokinetics)
Procedure: (§1) • Tablets were orally administered in preset dose group of 30 mg, 90 mg, 180 mg, 360 mg, 540 mg or 720 mg, with one treatment cycle every 28 days. Administration was continuous until disease progression or the occurrence of unacceptable toxicity. Tablets were orally administered once daily, within 30 minutes after breakfast each morning, for consecutive administration. If intensive PK blood sampling was scheduled on a given day, the subject was forbidden to drink water 1 h and fasted 4 h before and after drug administration.
There were a total of 9 patients in the food effect study.

[2] = Phase I clinical study, clinical safety (DLT, TEAEs, treatment-related AEs)
Text: • Incidence of dose limiting toxicity (DLT) • MTD (if available) and RP2D;
(§2) • Incidence, severity (graded according to CTCAE v5.0), and correlation with the study drug of adverse events (AEs) and serious adverse events (SAEs), also including abnormalities in vital signs, electrocardiogram, and laboratory tests; • PK parameters of the compound of formula I after single/multiple administrations, including but not limited to: • single administration parameters: peak plasma concentration (Cmax), time to peak (Tmax), area under the concentration-time curve from time zero to the last detectable concentration time point t (AUC0-t), area under the concentration-time curve from time zero to infinity (AUC0-inf) (if applicable), half-life (t1/2) (if applicable), apparent volume of distribution (Vz/F) (if applicable), and apparent clearance (CL/F) (if applicable); • multiple administration parameters: steady-state peak concentration (Cmax, ss), time to peak (Tmax, ss), steady-state trough concentration (Cmin, ss), area under the steady-state plasma concentration-time curve (AUCss), and drug accumulation ratio (Rac). • Pharmacokinetic (PK) of midazolam: pharmacokinetic parameters of midazolam in patients after administration of a microdose of midazolam before (D-1) and after (D15) multiple oral administrations of the compound of formula I, including: Tmax, Cmax, AUC0-t, AUCO-∞, t1/2, CL/F and Vz/F. • Efficacy endpoints: objective response rate (ORR), disease control rate (DCR), duration of response (DoR), radiographic progression-free survival (rPFS), PSA response rate at week 12, proportions of subjects with a decrease in PSA of ≧50% and ≧30% from baseline throughout study treatment, time to PSA progression, and overall survival (OS).
as §1
A total of 26 tumour subjects were enrolled in this study, with 13 subjects in the dose escalation phase. There were 1, 4, 4, 3, and 1 subject(s) in 30 mg, 90 mg, 180 mg, 360 mg, and 540 mg dose groups, respectively. […] One subject was enrolled in the 540 mg dose group and remained in DLT observation, and no dose-limiting toxicity (DLT) was observed. There were 13 subjects in the dose expansion phase, and all were in the 180 mg dose group.

PSA = test: Phase I clinical study, clinical effectiveness (PSA response)
Text: as §2, §1
A total of 17 subjects in the study received at least one post-baseline PSA test, with 1, 4, 9, and 3 subjects in 30 mg, 90 mg, 180 mg, and 360 mg dose groups, respectively. 8 of 17 subjects evaluable for PSA response experienced a PSA decrease.

[3] = 180 mg oral administration under fasting conditions, patients with mCRPC
[4] = postprandial absorption compared with fasting state, food effect study

Q: For `C[C@H]1CC2(CCN(c3ccc(C(=O)N4CCC(CN5CCN(c6cccc(N[C@H]7CCC(=O)NC7=O)c6)CC5)CC4)cc3F)CC2)CN1c1ccc(C#N)c(Cl)c1` [compound of formula I], which “geometric mean (% geometric coefficient of variation) of apparent volume of distribution” value [1, 3] is on record?
A: The value was 1260 (90.7) L.

Q: What about the “geometric mean (% geometric coefficient of variation) of clearance” value [1, 3] of the same molecule?
A: The value was 21.5 (83.4) L/h.

Q: What about the “median time to peak” value [1, 3] of the same molecule?
A: Its value is 3 h.

Q: And the half-life ([1]; male, human, plasma, 180 mg oral administration under fasting conditions, patients with mCRPC, food effect study (9 patients), read-out: mean half-life (± standard deviation) (converted))?
A: The half-life was 2450 ± 262 min.

Q: What about the “AUC, postprandial versus fasting state” value [1, 4] of the same molecule?
A: Its value is 2.54 fold.

Q: And the “Cmax, postprandial versus fasting state” value [1, 4]?
A: The value was 3.06 fold.

Q: And the “time to peak delayed (postprandial versus fasting)” value ([1]; postprandial compared with fasting state)?
A: Its value is 3 h.

Q: What about the “time to peak, postprandial” value ([1]; postprandial state) of the same molecule?
A: Its value is “about 6 h”.

Q: What about the “subjects who experienced AEs associated with formula I” value ([2]; 8 of 26 subjects) of the same molecule?
A: Its value is 30.8%.

Q: And the “subjects who experienced TEAEs” value ([2]; 9 of 26 tumour subjects enrolled)?
A: Its value is 34.6%.

Q: And the “dose-limiting toxicity (DLT)” value ([2]; dose escalation phase, 13 subjects, 30 mg, 90 mg, 180 mg, 360 mg and 540 mg dose groups, oral once daily)?
A: The value was “no DLT was observed”.

Q: What about the “grade 4/5 AE” value ([2]; during the study, 26 subjects) of the same molecule?
A: The value was “No grade 4/5 AE occurred”.

Q: And the “subjects who experienced grade 3 TRAE” value ([2]; one of 26 subjects, decreased neutrophil count and decreased white blood cell count)?
A: The value was 3.8%.

Q: What about the “subjects who experienced grade 3 TEAEs” value ([2]; three of 26 subjects) of the same molecule?
A: Its value is 11.5%.

Q: What about the “subjects who experienced a PSA decrease” value (PSA; 180 mg dose group, 6 of the 9 subjects) of the same molecule?
A: The value was 66.7%.

Q: And the “subjects achieving PSA30 (a reduction in serum PSA level of ≧ 30% from baseline during treatment)” value (PSA; 180 mg dose group, 9 subjects)?
A: Its value is 3 subjects.

Q: And the “subjects achieving PSA90 (a reduction in serum PSA level of ≧ 90% from baseline during treatment)” value (PSA; 180 mg dose group, 9 subjects)?
A: The value was 1 subject.

Q: And the “subjects who experienced a PSA decrease” value (PSA; of 17 subjects evaluable for PSA response, 30 mg, 90 mg, 180 mg and 360 mg dose groups)?
A: The value was 8 subjects.

From patent publication EP4740946A1, “METHOD FOR TREATING PROSTATE CANCER” (Jiangsu Hengrui Pharmaceuticals Co., Ltd., priority 2023, dated 2025)
